Legend:
[1] = tested on: Haematococcus pluvialis (Strain 1) green swimmer cells
Description: Haematococcus pluvialis cultures containing green swimmer cells in open raceway pond bioreactors [identification numbers (#) 2210 and 2220] disposed in a greenhouse, using paddlewheel mixing, and operating in conditions: reactor volume of 16,000 L; Daily photosynthetically active radiation (PAR) of 57 mol m^−2 d^−1; pH of 7.5; and paddlewheel speed of 40%; were inoculated on the same day and cultured in growth conditions.
The culture of bioreactor #2330 was transferred to open raceway pond bioreactor #2420 disposed in a greenhouse, using paddlewheel mixing, and operating in conditions: reactor volume of 140,000 L; Daily PAR of 58 mol m^−2 d^−1; pH of 7.3; and paddlewheel speed of 70%); but the culture was not treated after the transfer. […] Bacteria including Pseudomonas, Flectobacillus, and Cytophaga were present in the bacterial community in both the bioreactors #2330 and #2420.

[2] = tested on: Haematococcus pluvialis (Strain 2); test: % lysis and culture dry weight in flasks (Example 9); settings: for percent lysis: by day 5;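 as to all read-outs here: flask cultures run in duplicate for each treatment, alongside duplicate untreated control flasks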
Description: Culture samples of Haematococcus pluvialis (Strain 2) were collected on day 5 of the culture from open raceway bioreactor #2420 operating in conditions: reactor volume of 170,000 L; Daily PAR not measured; pH of 7.3; and paddlewheel speed of 70%). Culture samples were distributed into flasks for culturing, consisting of duplicate untreated controls and duplicate treatments. […] Samples were taken from the flask cultures every few days in order to quantify % lysis, % chytrid infection, and cell dry weight for a duration of about 11 days.

[3] = tested on: Nitrogen fixing bacteria including Rhizobium, Emticicia, and Sinorhizobium; settings: after the hydrogen peroxide treatments in bioreactor #2320 (from 20-40%)
Text: A series of Haematococcus pluvialis (Strain 1) cultures were compared using bacterial community sequencing (SSU rRNA 16s) to analyze the bacterial community of the cultures during a lysis event, a chytrid infection, and during treatment with hydrogen peroxide to determine if the bacteria community shifts or produces a detectable pattern.

chytrids = test: % chytrid infection in flask cultures (Example 6); assay type: cell-based
Description: A series of experiments were conducted to evaluate the effectiveness of hydrogen peroxide alone and in combination with concentrations of salt as a treatment for controlling chytrid infections in Haematococcus pluvialis cultures. […] Bioreactor #2420 had just been inoculated with cells in the green swimmer stage into reddening conditions that comprised of culture medium comprising a 1 ppt concentration of sodium chloride (NaCl). The flask experiment consisted of duplicate untreated controls and duplicate treatments.
The flask cultures contained Haematococcus pluvialis (Strain 1) cells in both the green swimmer stage and early red cyst stage.
The collected samples were inoculated in the green swimmer stage in growth conditions [i.e., in the absence of sodium chloride (NaCl)].
The culture samples were inoculated in the green swimmer stage in growth conditions [i.e., in less than 1 ppt of sodium chloride (NaCl)].
The flask cultures were then diluted 1:3 into reddening media comprising 1 ppt NaCl or 2 ppt NaCl (33.3 mL and 66.6 mL culture media).

[4] = tested on: Haematococcus pluvialis (Strain 2); test: % cell lysis and culture dry weight in flasks, salt treatment (Example 12); assay type: cell-based
Description: This test was done side by side in flasks (0.1 L) and in reactors located in a greenhouse operating in conditions: reactor volume of 230 L; Daily PAR of 20 mol m^−2 d^−1; pH (not measured); and paddlewheel speed of 21 RPM. […] The flask cultures were mixed by shaking at 140 rpm and received 300-400 μmol/m^2 s of photosynthetically active radiation (PAR) in 12 hour light cycles and constant supply of 2.5% CO2. The motility of the culture was monitored by visual observation under a microscope. […] Nine 230 L reactors were also seeded with culture from bioreactor #2410 on the same day as the flasks and brought to 2 ppt concentration of salt. Once motility of the cells was reduced to <10% (day 3 of culture for flasks and day 2 for 230 L reactors) the level of salt was elevated to a point between 4-18 ppt and compared to the culture in two reactors remaining at 2 ppt salt. Flasks and 230 L reactors were monitored for percentage of cell lysis via visual observation under a microscope, culture dry weight (biomass accumulation in g/L), and percentage of chytrid infection via visual observation under a microscope. Carotenoid production, a proxy for determining astaxanthin, was quantified every other day of culture in the 230 L reactors using the UV method.

[5] = bioreactor #2220, 0.0075 mL/L every 24 hours

## hydrogen peroxide [H2O2]
[1]; [5]
  duration of high motility compared with untreated culture #2210: one day longer
  motility retained: 95%
[1]; bioreactor #2320, 0.0075 mL/L every 24 hours
  time of chytrid detection compared with untreated culture #2310: three days later
[1]; bioreactor #2320, treated culture
  onset of high amounts of cell lysis: not until five days after the treatment ended
[1]; bioreactor #2330, 0.0075 mL/L, after the first treatment
  decrease of motility: about 30%
[1]; bioreactor #2330, 0.0075 mL/L, after the second treatment
  lysis: 60%
[1]; bioreactors #2330/#2420, end of the culture period
  Chytrid sporangia present, time after hydrogen peroxide treatment ended: 7 days
[1]; bioreactors #2330/#2430, 0.0075 mL/L once before and twice after transfer
  Chytrid sporangia in the culture: not detected
[1]; bioreactors #2330/#2430, treatment began after lysis had occurred
  time high amounts of cell lysis remained high: 4 days
[2]; 0.0105 mL/L 3 times per day (discontinued day 5), day 6
  % Lysis: 3.3 ± 2.4%
[2]; 0.0105 mL/L 3 times per day (discontinued day 5), day 9
  % Lysis: 6.7 ± 2.4%
[2]; 0.0105 mL/L 3 times per day (discontinued day 5), day 11
  % Lysis: 4.2 ± 3.5%
[2]; 0.0105 mL/L 3 times per day, day 0
  % Lysis: 4.2 ± 1.2%
[2]; 0.0105 mL/L 3 times per day, day 3
  % Lysis: 0.8 ± 1.2%
[2]; 0.0105 mL/L 3 times per day, day 4
  % Lysis: 3.3 ± 2.4%
[2]; 0.0105 mL/L 3 times per day, day 5
  % Lysis: 10.8 ± 1.2%
[2]; 0.0140 mL/L 1 time per day (discontinued day 5), day 6
  % Lysis: 7.5 ± 1.2%
[2]; 0.0140 mL/L 1 time per day (discontinued day 5), day 9
  % Lysis: 10.8 ± 1.2%
[2]; 0.0140 mL/L 1 time per day (discontinued day 5), day 11
  % Lysis: 7.5 ± 1.2%
[2]; 0.0140 mL/L 1 time per day, day 0
  % Lysis: 4.2 ± 1.2%
[2]; 0.0140 mL/L 1 time per day, day 3
  % Lysis: 5.0 ± 2.4%
[2]; 0.0140 mL/L 1 time per day, day 4
  % Lysis: 4.2 ± 1.2%
[2]; 0.0140 mL/L 1 time per day, day 5
  % Lysis: 10.0 ± 2.4%
[2]; 0.0140 mL/L 2 times per day (discontinued day 5), day 6
  % Lysis: 9.7 ± 5.9%
[2]; 0.0140 mL/L 2 times per day (discontinued day 5), day 9
  % Lysis: 5.0 ± 0.0%
[2]; 0.0140 mL/L 2 times per day (discontinued day 5), day 11
  % Lysis: 0.0 ± 0.0%
[2]; 0.0140 mL/L 2 times per day, day 0
  % Lysis: 4.2 ± 1.2%
[2]; 0.0140 mL/L 2 times per day, day 3
  % Lysis: 5.0 ± 4.7%
[2]; 0.0140 mL/L 2 times per day, day 4
  % Lysis: 3.3 ± 2.4%
[2]; 0.0140 mL/L 2 times per day, day 5
  % Lysis: 10.0 ± 2.4%
[2]; 0.0140 mL/L 3 times per day (discontinued day 5), day 6
  % Lysis: 55.0 ± 30.6%
[2]; 0.0140 mL/L 3 times per day (discontinued day 5), day 9
  % Lysis: 60.0 ± 28.3%
[2]; 0.0140 mL/L 3 times per day (discontinued day 5), day 11
  % Lysis: 56.7 ± 33.0%
[2]; 0.0140 mL/L 3 times per day, day 0
  % Lysis: 4.2 ± 1.2%
[2]; 0.0140 mL/L 3 times per day, day 3
  % Lysis: 2.5 ± 3.5%
[2]; 0.0140 mL/L 3 times per day, day 4
  % Lysis: 9.2 ± 1.2%
[2]; 0.0140 mL/L 3 times per day, day 5
  % Lysis: 42.5 ± 15.3%
[2]; 0.014 mL/L dosed three times per day
  percent lysis: 40%
[2]; 0.0175 mL/L 1 time per day (discontinued day 5), day 6
  % Lysis: 6.7 ± 2.4%
[2]; 0.0175 mL/L 1 time per day (discontinued day 5), day 9
  % Lysis: 6.7 ± 4.7%
[2]; 0.0175 mL/L 1 time per day (discontinued day 5), day 11
  % Lysis: 4.2 ± 3.5%
[2]; 0.0175 mL/L 1 time per day, day 0
  % Lysis: 4.2 ± 1.2%
[2]; 0.0175 mL/L 1 time per day, day 3
  % Lysis: 2.5 ± 1.2%
[2]; 0.0175 mL/L 1 time per day, day 4
  % Lysis: 4.2 ± 1.2%
[2]; 0.0175 mL/L 1 time per day, day 5
  % Lysis: 9.2 ± 1.2%
[2]; all treated cultures except 0.014 mL/L three times per day
  percent lysis: 10%
[3]
  relative amount of nitrogen fixing bacteria in the dominant bacterial community: less than 10%
chytrids; 4th experiment, starting 5 days after inoculation (144 h)
  reduction in % chytrid infection compared to the control: 50-90%
chytrids; #2210 samples, absence of NaCl, 0.0075 mL/L two times per day, 0 h
  Average Chytrid Infection: 0.0 ± 0.0%
chytrids; #2210 samples, absence of NaCl, 0.0075 mL/L two times per day, 24 h
  Average Chytrid Infection: 0.0 ± 0.0%
chytrids; #2210 samples, absence of NaCl, 0.0075 mL/L two times per day, 48 h
  Average Chytrid Infection: 0.0 ± 0.0%
chytrids; #2210 samples, absence of NaCl, 0.0075 mL/L two times per day, 96 h
  Average Chytrid Infection: 0.0 ± 0.0%
chytrids; #2210 samples, absence of NaCl, 0.0075 mL/L two times per day, 120 h
  Average Chytrid Infection: 0.0 ± 0.0%
chytrids; #2210 samples, absence of NaCl, 0.0075 mL/L two times per day, 144 h
  Average Chytrid Infection: 4.2 ± 5.9%
chytrids; #2210 samples, absence of NaCl, 0.0075 mL/L two times per day, 168 h
  Average Chytrid Infection: 18.3 ± 25.9%
chytrids; #2210 samples, absence of NaCl, 0.0075 mL/L two times per day, 192 h
  Average Chytrid Infection: 26.6 ± 37.1%
chytrids; #2210 samples, absence of NaCl, 0.0075 mL/L two times per day, 264 h
  Average Chytrid Infection: 51.7 ± 7.1%
chytrids; #2310 samples (4th experiment), 1 ppt NaCl, 0.0075 mL/L 3 times per day, 0 h
  Average Chytrid Infection: 0.0 ± 0.0%
chytrids; #2310 samples (4th experiment), 1 ppt NaCl, 0.0075 mL/L 3 times per day, 24 h
  Average Chytrid Infection: 0.0 ± 0.0%
chytrids; #2310 samples (4th experiment), 1 ppt NaCl, 0.0075 mL/L 3 times per day, 48 h
  Average Chytrid Infection: 0.0 ± 0.0%
chytrids; #2310 samples (4th experiment), 1 ppt NaCl, 0.0075 mL/L 3 times per day, 120 h
  Average Chytrid Infection: 1.7 ± 1.7%
chytrids; #2310 samples (4th experiment), 1 ppt NaCl, 0.0075 mL/L 3 times per day, 144 h
  Average Chytrid Infection: 18.3 ± 18.5%
chytrids; #2310 samples (4th experiment), 1 ppt NaCl, 0.0075 mL/L 3 times per day, 168 h
  Average Chytrid Infection: 17.2 ± 14.4%
chytrids; #2310 samples (4th experiment), 1 ppt NaCl, 0.0075 mL/L 3 times per day, 192 h
  Average Chytrid Infection: 32.2 ± 28.1%
chytrids; #2310 samples (4th experiment), 1 ppt NaCl, 0.0075 mL/L 3 times per day, 216 h
  Average Chytrid Infection: 44.4 ± 46.8%
chytrids; #2420 samples, 1 ppt NaCl, 0.0075 mL/L 2-3 times per day, 0 h
  Average Chytrid Infection: 0.0 ± 0.0%
chytrids; #2420 samples, 1 ppt NaCl, 0.0075 mL/L 2-3 times per day, 24 h
  Average Chytrid Infection: 0.0 ± 0.0%
chytrids; #2420 samples, 1 ppt NaCl, 0.0075 mL/L 2-3 times per day, 48 h
  Average Chytrid Infection: 0.0 ± 0.0%
chytrids; #2420 samples, 1 ppt NaCl, 0.0075 mL/L 2-3 times per day, 72 h
  Average Chytrid Infection: 0.0 ± 0.0%
chytrids; #2420 samples, 1 ppt NaCl, 0.0075 mL/L 2-3 times per day, 144 h
  Average Chytrid Infection: 0.0 ± 0.0%
chytrids; #2420 samples, 1 ppt NaCl, 0.0075 mL/L 2-3 times per day, 168 h
  Average Chytrid Infection: 0.0 ± 0.0%
chytrids; #2420 samples, 1 ppt NaCl, 0.0075 mL/L 2-3 times per day, 197 h
  Average Chytrid Infection: 0.0 ± 0.0%
chytrids; #2420 samples, 1 ppt NaCl, 0.0075 mL/L 2-3 times per day, 217 h
  Average Chytrid Infection: 0.0 ± 0.0%
chytrids; #2440 samples, 1 ppt salt, 0.0075 mL/L 2-3 times per day, 0 h
  Average Chytrid Infection: 0.0 ± 0.0%
chytrids; #2440 samples, 1 ppt salt, 0.0075 mL/L 2-3 times per day, 24 h
  Average Chytrid Infection: 1.7 ± 2.9%
chytrids; #2440 samples, 1 ppt salt, 0.0075 mL/L 2-3 times per day, 96 h
  Average Chytrid Infection: 25.0 ± 2.9%
chytrids; #2440 samples, 1 ppt salt, 0.0075 mL/L 2-3 times per day, 120 h
  Average Chytrid Infection: 51.7 ± 5.0%
chytrids; #2440 samples, 1 ppt salt, 0.0075 mL/L 2-3 times per day, 144 h
  Average Chytrid Infection: 43.9 ± 4.2%

## [Cl-].[Na+] [NaCl, sodium chloride]
[4]; 2 ppt, 9 d
  % Cell Lysis in Flasks: 0 ± 0%
[4]; 2 ppt, 11 d
  % Cell Lysis in Flasks: 0 ± 0%
[4]; 4 ppt, 9 d
  % Cell Lysis in Flasks: 0 ± 0%
[4]; 4 ppt, 11 d
  % Cell Lysis in Flasks: 0 ± 0%
[4]; 5 ppt, 9 d
  % Cell Lysis in Flasks: 0 ± 0%
[4]; 5 ppt, 11 d
  % Cell Lysis in Flasks: 1 ± 1%
[4]; 6 ppt, 9 d
  % Cell Lysis in Flasks: 4 ± 3%
[4]; 6 ppt, 11 d
  % Cell Lysis in Flasks: 5 ± 4%
[4]; 7 ppt, 9 d
  % Cell Lysis in Flasks: 0 ± 0%
[4]; 7 ppt, 11 d
  % Cell Lysis in Flasks: 7 ± 3%
[4]; 8 ppt, 9 d
  % Cell Lysis in Flasks: 3 ± 2%
[4]; 8 ppt, 11 d
  % Cell Lysis in Flasks: 2 ± 0%
[4]; 9 ppt, 9 d
  % Cell Lysis in Flasks: 0 ± 0%
[4]; 9 ppt, 11 d
  % Cell Lysis in Flasks: 2 ± 0%
[4]; 10 ppt, 9 d
  % Cell Lysis in Flasks: 1 ± 1%
[4]; 10 ppt, 11 d
  % Cell Lysis in Flasks: 3 ± 1%
[4]; 11 ppt, 9 d
  % Cell Lysis in Flasks: 0 ± 0%
[4]; 11 ppt, 11 d
  % Cell Lysis in Flasks: 1 ± 1%
[4]; flasks, all treatments
  cell lysis: below 10%

From patent publication US20160281050A1, “METHODS FOR TREATING A CULTURE OF HAEMATOCOCCUS PLUVIALIS FOR CONTAMINATION USING SALT AND HYDROGEN PEROXIDE” (HELIAE DEVELOPMENT LLC, priority 2015, published 2016)
